Test results from US11046715B2, “Boronic derivatives of hydroxamates as anticancer agents” (Xavier University of Louisiana, priority 2016, dated 2021).
Where “and” joins values, the source holds several entries; their conditions need not be identical. Equal entries are not always repeated. Each block holds one molecule with its values, some of them ahead of it.

How the values were obtained:
[1] = tested on: A549: human non-small-cell lung carcinoma; experiment: In vitro cytotoxicity / antiproliferation, A549; assay type: cell-based
Procedure: (§1) The in vitro cytotoxicity of boronic derivatives of hydroxamates was tested against various cancer cell lines; the results are provided in Table 1.

[2] = tested on: MCF-7: human breast adenocarcinoma; experiment: In vitro cytotoxicity / antiproliferation, MCF-7; assay type: cell-based; conditions: MCF7
Procedure: as §1

MCF-7 tumor xenograft = experiment: In vivo efficacy in MCF-7 tumor xenograft model in mice; conditions: 10 mg/kg/day subcutaneous; for effect on tumor growth (in words): compared with vehicle group; for average tumor volume: day 15; for Tumor volume: day 24, MCF-7 xenograft mice
[3] = tested on: MDA-MB-231: human breast adenocarcinoma; experiment: In vitro cytotoxicity / antiproliferation, MDA-MB-231; assay type: cell-based; conditions: MDA-MB-231, read-out: Antiproliferation activity (IC50)
[4] = tested on: HeLa: human epitheloid cervix carcinoma; experiment: In vitro cytotoxicity / antiproliferation, HeLa; assay type: cell-based
Procedure: as §1

[5] = tested on: SK-MEL-28: human melanoma; experiment: In vitro cytotoxicity / antiproliferation, SK-MEL-28; assay type: cell-based; conditions: SK-MEL-28, read-out: Antiproliferation activity (IC50)
[6] = tested on: NCI-H460: human non-small-cell lung cancer; experiment: In vitro cytotoxicity / antiproliferation, NCI-H460; assay type: cell-based; conditions: NCI-H460, read-out: Antiproliferation activity (IC50)
[7] = tested on: SK-OV-3: human ovarian cancer; experiment: In vitro cytotoxicity / antiproliferation, SK-OV-3; assay type: cell-based
[8] = Concentration in tumor tissue of MCF-7 xenograft mice; assay type: in vivo; conditions: after 24 days at 10 mg/kg/day subcutaneous
[9] = In vivo pharmacokinetics in mice after intraperitoneal injection (plasma); conditions: single dose 10 mg/kg IP
Procedure: Pharmacokinetic studies of compound 3 in mice were conducted.

MDA-MB-231 cells = experiment: In vitro pharmacokinetics: concentrations in culture media after incubation with MDA-MB-231 cells; assay type: in vitro ADME, human; conditions: 1-day incubation with MDA-MB-231 cells
[10] = target: Histone deacetylase (HDAC); experiment: Histone deacetylase activity assay kit (Fluorometric) ab156064; assay type: biochemical; conditions: 20 min incubation; read-out: HDAC inhibitory activity EC50

Compound: O=C(/C=C/c1cccc(S(=O)(=O)Nc2ccccc2)c1)NO [Belinostat, reference compound]
IC50 [1]: 0.0766 µM | IC50 [2]: 0.0964 µM | TGI (inhibition of tumor growth) (MCF-7 tumor xenograft; 24 days): 77.7% | effect on tumor growth (in words) (MCF-7 tumor xenograft): potent inhibitory activity against the growth of tumor | average tumor volume (MCF-7 tumor xenograft): 167 mm^3 | Tumor volume (MCF-7 tumor xenograft): 194 mm^3 and 193.68 ± 29.79 mm^3 | IC50 [3]: 0.0616 µM | IC50 [4]: 0.0865 µM

Compound: Cn1c(CCCC(=O)O)nc2cc(N(CCCl)CCCl)ccc21 [Bendamustine, reference compound]
IC50 [5]: 149 µM | IC50 [6]: 45.3 µM | IC50 [7]: 33.4 µM | IC50 [3]: 37.5 µM

Compound: CC1(C)OB(c2ccc(CONC(=O)CCCCCCC(=O)Nc3ccccc3)cc2)OC1(C)C [Compound 1]
IC50 [5]: 13.5 µM | IC50 [7]: 55.2 µM | IC50 [3]: 423 µM

concentration of belinostat and compound 95 added together in tumor tissue, relative to belinostat group [8]: five times greater | maximum concentration of compound 95 relative to maximum concentration achieved by belinostat [9]: about forty times | EC50 [10]: 0.35 µM
Compound: CC1(C)OB(c2ccc(CONC(=O)/C=C/c3cccc(S(=O)(=O)Nc4ccccc4)c3)cc2)OC1(C)C [Compound 3]
IC50 [1]: 0.453 µM | IC50 [2]: 1.46 µM | T/C (tumor volume ratio) (MCF-7 tumor xenograft; 24 days): 14.6% | TGI (inhibition of tumor growth) (MCF-7 tumor xenograft; 24 days): 85.3% | effect on tumor growth (in words) (MCF-7 tumor xenograft): resulted in tumor remission | effect on tumor growth (in words) (MCF-7 tumor xenograft; listed as compound 3): potent inhibitory activity against the growth of tumor | average tumor volume (MCF-7 tumor xenograft): 153 mm^3 | Tumor volume (MCF-7 tumor xenograft): 127 mm^3 | IC50 [5]: 0.678 µM | IC50 [6]: 0.43 µM | IC50 [3]: 0.303 µM | IC50 [4]: 0.273 µM | conversion of compound 3 in culture media (in words) (MDA-MB-231 cells): completely converted to compound 95 and partially to belinostat

Compound: CCN(CC)Cc1ccc2cc(COC(=O)Nc3ccc(C(=O)NOCc4ccc(B5OC(C)(C)C(C)(C)O5)cc4)cc3)ccc2c1 [Compound 4]
IC50 [5]: 0.377 µM | IC50 [6]: 0.154 µM | IC50 [7]: 0.296 µM | IC50 [3]: 0.321 µM

Compound: CN(C)Cc1ccc(S(=O)(=O)n2ccc(/C=C/C(=O)NOCc3ccc(B4OC(C)(C)C(C)(C)O4)cc3)c2)cc1 [Compound 5]
IC50 [1]: > 10 µM | IC50 [3]: > 10 µM | IC50 [4]: > 10 µM

Compound: Cn1c(CCCC(=O)NOCc2ccc(B3OC(C)(C)C(C)(C)O3)cc2)nc2cc(N(CCCl)CCCl)ccc21 [Compound 7]
IC50 [5]: 0.373 µM | IC50 [6]: 1.22 µM | IC50 [7]: 1.84 µM | IC50 [3]: 3.33 µM

Compound: COc1ccc(C(=O)NOCc2ccc(B3OC(C)(C)C(C)(C)O3)cc2)cc1 [Compound 10]
IC50 [1]: > 10 µM | IC50 [3]: > 10 µM | IC50 [4]: > 10 µM

Compound: CC1=C(CC(=O)NOCc2ccc(B3OC(C)(C)C(C)(C)O3)cc2)c2cc(F)ccc2/C1=C/c1ccc([S+](C)[O-])cc1 (stereo not drawn) [Compound 11]
IC50 [1]: 696 µM | IC50 [5]: 77.4 µM | IC50 [6]: 1.01 µM | IC50 [7]: 19.4 µM | IC50 [3]: 20.1 µM | IC50 [4]: 277 µM

Compound: COc1cc(C(=O)NOCc2ccc(B3OC(C)(C)C(C)(C)O3)cc2)cc(OC)c1OC [Compound 13]
IC50 [1]: > 10 µM | IC50 [3]: > 10 µM | IC50 [4]: > 10 µM

Compound: CC(C)Cc1ccc(C(C)C(=O)NOCc2ccc(B3OC(C)(C)C(C)(C)O3)cc2)cc1 (stereo not drawn) [Compound 14]
IC50 [1]: > 10 µM | IC50 [3]: > 10 µM | IC50 [4]: > 10 µM

Compound: CC1(C)OB(c2ccc(CONC(=O)c3cc4ccccc4oc3=O)cc2)OC1(C)C [Compound 15]
IC50 [1]: > 10 µM | IC50 [3]: > 10 µM | IC50 [4]: > 10 µM

Compound: COc1ccc(C(=O)NOCc2ccc(B3OC(C)(C)C(C)(C)O3)cc2)cc1OC [Compound 16]
IC50 [1]: > 10 µM | IC50 [3]: > 10 µM | IC50 [4]: > 10 µM

Compound: CCN(CC)Cc1ccc2cc(COC(=O)Nc3ccc(C(=O)NO)cc3)ccc2c1 [Givinostat, reference compound]
IC50 [5]: 0.0913 µM | IC50 [6]: 0.103 µM | IC50 [3]: 0.119 µM

Compound: CC1=C(CC(=O)O)c2cc(F)ccc2/C1=C\c1ccc([S+](C)[O-])cc1 (stereo not drawn) [Sulindac, reference compound]
IC50 [1]: 20400 µM | IC50 [5]: 1400 µM | IC50 [6]: 41.9 µM | IC50 [7]: 109 µM | IC50 [3]: 1400 µM | IC50 [4]: 458 µM
